Source: ChEMBL document CHEMBL1201862, “PubChem BioAssay data set” (2004)
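In this assay, cells in 96-well plates receive the compound at five concentrations for 48 hours. Endpoints are linearly interpolated between the surrounding concentrations. At the GI50, growth is halved.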 The source made the active and inactive calls. Cut-off read from the data, not from the text of the source: active = GI50 up to about 1.1 µM and inactive = higher.

Experiments:
Assay in all cases: inhibition of tumour cell growth, NCI panel, 48 h
MDA-N = tested on: MDA-N
KM12 = tested on: KM12
A549 = tested on: A549
A498 = tested on: A498
MDA-MB-435 = tested on: MDA-MB-435
SW-620 = tested on: SW-620
CAKI-1 = tested on: CAKI-1
NCI-H522 = tested on: NCI-H522
SNB-19 = tested on: SNB-19
UO-31 = tested on: UO-31
UACC-62 = tested on: UACC-62
NCI-H226 = tested on: NCI-H226
TK-10 = tested on: TK-10
CCRF-CEM = tested on: CCRF-CEM
NCI-H460 = tested on: NCI-H460
M14 = tested on: M14
HOP-62 = tested on: HOP-62
LOX IMVI = tested on: LOX IMVI
COLO 205 = tested on: COLO 205
SK-OV-3 = tested on: SK-OV-3

SMILES	GI50 (MDA-N)	GI50 (KM12)	GI50 (A549)	GI50 (A498)	GI50 (MDA-MB-435)	GI50 (SW-620)	GI50 (CAKI-1)	GI50 (NCI-H522)	GI50 (SNB-19)	GI50 (UO-31)	GI50 (UACC-62)	GI50 (NCI-H226)	GI50 (TK-10)	GI50 (CCRF-CEM)	GI50 (NCI-H460)	GI50 (M14)	GI50 (HOP-62)	GI50 (LOX IMVI)	GI50 (COLO 205)	GI50 (SK-OV-3)
Nc1nc(SCCc2ccccc2)c2nc[nH]c2n1	55.7 µM (inactive)	> 100 µM (inactive)	> 100 µM (inactive)	19.1 µM (inactive)	81.7 µM (inactive)	76.9 µM (inactive)	61.9 µM (inactive)	66.2 µM (inactive)	> 100 µM (inactive)	60.7 µM (inactive)	47.5 µM (inactive)	61.9 µM (inactive)	19.6 µM (inactive)	31.2 µM (inactive)	33.9 µM (inactive)	71.3 µM (inactive)	50.5 µM (inactive)	41.8 µM (inactive)	–	–
Cc1cc(O)c(C=O)c2c1C(=O)Oc1c(CO)c(O)c3c(c1O2)C(O)OC3=O (stereo not given) [SLAZINIC ACID]	66.2 µM (inactive)	36.7 µM (inactive)	> 100 µM (inactive)	58.3 µM (inactive)	39.6 µM (inactive)	60 µM (inactive)	61.5 µM (inactive)	42.3 µM (inactive)	21.4 µM (inactive)	34.5 µM (inactive)	59 µM (inactive)	38.8 µM (inactive)	> 100 µM (inactive)	43 µM (inactive)	–	61.4 µM (inactive)	> 100 µM (inactive)	82.2 µM (inactive)	> 100 µM (inactive)	64 µM (inactive)
COc1cc(C2c3cc4c(cc3[C@H](OCCN(C)C)[C@@H]3COC(=O)C23)OCO4)cc(OC)c1O (stereo not given in full)	2.12 µM (inactive)	0.69 µM (active)	0.0334 µM (active)	0.105 µM (active)	2 µM (inactive)	0.422 µM (active)	0.0519 µM (active)	0.357 µM (active)	0.31 µM (active)	0.417 µM (active)	0.0762 µM (active)	0.0441 µM (active)	2.51 µM (inactive)	0.0791 µM (active)	< 0.01 µM (active)	0.244 µM (active)	0.053 µM (active)	0.0931 µM (active)	1.73 µM (inactive)	0.0912 µM (active)
O=c1cc(-c2ccccc2)oc2ccc(Cl)cc12 [6-CHLOROFLAVONE]	> 41.4 µM (inactive)	> 64.7 µM (inactive)	> 100 µM (inactive)	> 68.5 µM (inactive)	> 41.5 µM (inactive)	> 92.7 µM (inactive)	> 62.1 µM (inactive)	64.3 µM (inactive)	29.6 µM (inactive)	37.4 µM (inactive)	> 67.1 µM (inactive)	> 84.7 µM (inactive)	50 µM (inactive)	> 77.8 µM (inactive)	> 100 µM (inactive)	65.5 µM (inactive)	44.7 µM (inactive)	> 56.4 µM (inactive)	> 61.8 µM (inactive)	68.2 µM (inactive)
OCCN(C1=NCCN1)/[N+](=C/c1ccccc1O)[CH-]c1ccccc1O	> 100 µM (inactive)	> 100 µM (inactive)	> 100 µM (inactive)	> 100 µM (inactive)	> 100 µM (inactive)	> 100 µM (inactive)	> 100 µM (inactive)	> 100 µM (inactive)	> 100 µM (inactive)	37 µM (inactive)	> 100 µM (inactive)	28.6 µM (inactive)	> 100 µM (inactive)	> 100 µM (inactive)	> 100 µM (inactive)	> 100 µM (inactive)	> 100 µM (inactive)	> 100 µM (inactive)	> 100 µM (inactive)	> 100 µM (inactive)
CCCCn1c2c(n(CCCC)c1=S)-c1c(n(CCCC)c(=S)n1CCCC)S[Se][Se]S2	8.83 µM (inactive)	18.7 µM (inactive)	19.7 µM (inactive)	38.7 µM (inactive)	4.95 µM (inactive)	0.778 µM (active)	1.62 µM (inactive)	0.171 µM (active)	5.42 µM (inactive)	2.5 µM (inactive)	5.58 µM (inactive)	14.6 µM (inactive)	4.42 µM (inactive)	0.26 µM (active)	9.95 µM (inactive)	8.59 µM (inactive)	8.83 µM (inactive)	6.05 µM (inactive)	1.62 µM (inactive)	22 µM (inactive)
CCc1ccc(NC(=O)NC(=O)c2ccccc2[N+](=O)[O-])cc1Oc1ncc(Cl)cn1	< 0.01 µM (active)	< 0.0161 µM (active)	0.0213 µM (active)	< 0.01 µM (active)	< 0.01 µM (active)	0.0168 µM (active)	< 0.01 µM (active)	0.0135 µM (active)	0.0495 µM (active)	< 0.01 µM (active)	< 0.0177 µM (active)	0.0151 µM (active)	1.96 µM (inactive)	0.0213 µM (active)	0.0158 µM (active)	0.0231 µM (active)	< 0.0154 µM (active)	0.0189 µM (active)	0.0304 µM (active)	< 0.0164 µM (active)
CCc1n[nH]c(=O)n1/N=C/c1ccc(/C=N/n2c(CC)n[nH]c2=O)cc1	> 100 µM (inactive)	> 100 µM (inactive)	> 100 µM (inactive)	> 100 µM (inactive)	> 100 µM (inactive)	> 100 µM (inactive)	> 100 µM (inactive)	> 100 µM (inactive)	> 100 µM (inactive)	> 100 µM (inactive)	> 100 µM (inactive)	> 100 µM (inactive)	> 100 µM (inactive)	> 100 µM (inactive)	> 100 µM (inactive)	> 100 µM (inactive)	> 100 µM (inactive)	> 100 µM (inactive)	> 100 µM (inactive)	–
c1ccc2c3nnc(c2c1)SCCSCCCSCCS3	> 100 µM (inactive)	> 100 µM (inactive)	91 µM (inactive)	45.1 µM (inactive)	> 100 µM (inactive)	> 100 µM (inactive)	39.7 µM (inactive)	50.9 µM (inactive)	26.5 µM (inactive)	44.3 µM (inactive)	57.5 µM (inactive)	35.6 µM (inactive)	48 µM (inactive)	> 100 µM (inactive)	> 100 µM (inactive)	> 100 µM (inactive)	29.4 µM (inactive)	> 100 µM (inactive)	> 100 µM (inactive)	27.8 µM (inactive)
O=C(Nc1ccccc1)c1cc2ccccc2c(/N=N\c2cccc([N+](=O)[O-])c2)c1O	> 100 µM (inactive)	> 100 µM (inactive)	> 100 µM (inactive)	> 100 µM (inactive)	> 100 µM (inactive)	> 100 µM (inactive)	> 100 µM (inactive)	5.56 µM (inactive)	31 µM (inactive)	> 100 µM (inactive)	> 100 µM (inactive)	> 100 µM (inactive)	> 100 µM (inactive)	> 100 µM (inactive)	> 100 µM (inactive)	> 100 µM (inactive)	41.1 µM (inactive)	–	> 100 µM (inactive)	30.3 µM (inactive)
CCCCCn1c(=O)c2c(=O)[nH][nH]c2c2ccccc21	> 100 µM (inactive)	> 100 µM (inactive)	> 100 µM (inactive)	> 100 µM (inactive)	> 100 µM (inactive)	> 100 µM (inactive)	> 100 µM (inactive)	> 100 µM (inactive)	–	> 100 µM (inactive)	> 100 µM (inactive)	> 100 µM (inactive)	> 100 µM (inactive)	> 100 µM (inactive)	> 100 µM (inactive)	–	> 100 µM (inactive)	> 100 µM (inactive)	> 100 µM (inactive)	> 100 µM (inactive)
Cc1ccc(OCC2OC(n3cnc4c(Cl)nc(Cl)nc43)CC2Oc2ccc(C)cc2)cc1 (stereo not given)	1.93 µM (inactive)	1.7 µM (inactive)	3.5 µM (inactive)	23.1 µM (inactive)	2.26 µM (inactive)	3.66 µM (inactive)	1.57 µM (inactive)	1.74 µM (inactive)	1.5 µM (inactive)	–	1.98 µM (inactive)	3 µM (inactive)	11.2 µM (inactive)	4.3 µM (inactive)	1.87 µM (inactive)	1.85 µM (inactive)	2.56 µM (inactive)	1.79 µM (inactive)	1.96 µM (inactive)	19.2 µM (inactive)
CCOC(=O)/C(C#N)=C/c1ccc(SCc2ccco2)c([N+](=O)[O-])c1	> 100 µM (inactive)	> 100 µM (inactive)	> 100 µM (inactive)	> 100 µM (inactive)	> 100 µM (inactive)	> 100 µM (inactive)	> 100 µM (inactive)	> 100 µM (inactive)	> 100 µM (inactive)	> 100 µM (inactive)	57 µM (inactive)	> 100 µM (inactive)	–	> 100 µM (inactive)	> 100 µM (inactive)	> 100 µM (inactive)	> 100 µM (inactive)	> 100 µM (inactive)	> 100 µM (inactive)	> 100 µM (inactive)
N#CC(C#N)/N=N/c1ccc(-c2nc3ccccc3[nH]2)cc1	20 µM (inactive)	59.2 µM (inactive)	> 100 µM (inactive)	> 100 µM (inactive)	18 µM (inactive)	11.5 µM (inactive)	24.5 µM (inactive)	2.81 µM (inactive)	> 100 µM (inactive)	14 µM (inactive)	–	50.1 µM (inactive)	30.8 µM (inactive)	9.84 µM (inactive)	94.6 µM (inactive)	20.8 µM (inactive)	> 100 µM (inactive)	14.7 µM (inactive)	7.57 µM (inactive)	> 100 µM (inactive)
